How the values were obtained:
[1] = test system: mycorrhizal colonization of Leucaena leucocephala; conditions: in vivo; cited from earlier work
[2] = test system: VAM fungi (4 species VAM fungal cocktail) on corn plants; assay: Percent VAM development on 6-week-old corn plants from coated seed (2006); assay type: in vivo; conditions: for % VAM: 6-week-old corn plants, 95 VAM spores, low P; for % VAM, averaged: average across treatments, base VAM level 54% without treatment
Excerpt: Example 1 describes experimental studies carried out, in spring and summer of 2006 to evaluate the effects of different commercial fungicide seed coatings on VAM development in germinated corn seedlings in the presence and absence of alkali formononetinate. All corn seed coatings were done by Sub-Sahara International, Inc. (now owned by Becker Underwood Inc.) using standard coating procedures. The treater used was an RP-14 rotary seed coating machine manufactured by Sedpell in Canada. Successive applications were made with the fungicides being applied first according to the label instructions; then, when the seeds were dry they were over-coated with the alkali (potassium) formononetinate.
Fungicides were applied as a high viscosity, liquid suspension formulations according to the use directions on the respective labels.
The alkali formononetinate was dissolved in water and Polykote added according to the following ratios by weight: water—70 parts; alkali formononetinate—45 parts; Polykote—20 parts.
Seed germination and VAM development tests were carried out in a greenhouse at the Formosa Agricultural and Environmental Research Center, LaWard, Tex.
Percent VAM development was determined, within 3 weeks of treatment, on five, 6-week-old corn plants (from seeding) per treatment planted in sterile potting soil containing 95 spores of a 4 species VAM fungal cocktail at low P concentration. Originally 10 plants per treatment were installed in 30 ml Seedling® cells and after 10 days, 5 were transplanted into 1 liter containers.

[3] = test system: VAM fungi (Glomus etunicatum, Glomus clarum, Entrophospora columbiana, Glomus intraradices) on corn roots; assay: VAM colonization of corn roots from Myconate over-treated seed (2007); assay type: in vivo, Zea mays L.; conditions: for % Root colonization by VAM: Mean (%) / % Root colonization by VAM in 5 replicates: A / % Root colonization by VAM in 5 replicates: B / % Root colonization by VAM in 5 replicates: C / % Root colonization by VAM in 5 replicates: D / % Root colonization by VAM in 5 replicates: E: variety BH, fungicide/insecticide pre-treated seed; for % Root colonization by VAM: Mean (%): mean of 5 replicates; for % Root colonization by VAM in 5 replicates: A: replicate A; for % Root colonization by VAM in 5 replicates: B: replicate B; for % Root colonization by VAM in 5 replicates: C: replicate C; for % Root colonization by VAM in 5 replicates: D: replicate D; for % Root colonization by VAM in 5 replicates: E: replicate E
Experimental: Methods: This study was conducted between February-April 2007 in a greenhouse at the Formosa Agricultural and Environmental Research Center using hybrid corn plants (Zea mays L.) var. Beck's Hybrids 5959 (HB) and Dow/Mycogen 2D675 (PG). The hybrid corn seed was purchased from commercial sources and was pre-treated with one of two fungicidal/insecticidal seed treatments. Variety HB was commercially treated with Beck's “SureGro” containing fludioxonil and mefenoxam fungicides; together with Agriliance Actellic 5E (a.i. pirimiphos-methyl) insecticide, according to label directions. Variety PG was commercially treated with Syngenta “Cruiser Extreme” (a.i. fludioxonil, mefenoxam and azoxystrobin fungicides plus thiamethoxam insecticide) according to label directions.
Subsequently, the corn seed was over-treated with one of two formulations of Myconate. One formulation contained 98% potassium formononetinate (kf) together with Polykote polymer; and the other, 100% acid formononetin (afP) together with Polykote polymer, wetting agent, colorant, and preservative. The kf treatments, 1 through 6 in Table 6, contained varying amounts of potassium formononetinate and were applied using a lab bench apparatus. The afP treatments, 18 and 19, were applied using commercial equipment. Treated HB seed received the kf treatment of potassium formononetinate at rates of 0.2 to 5.6 mg/seed. Treated PG seed received the afP treatment of formononetin at single rate of 0.8 mg/seed. The concentration of formononetin per seed was calculated by gravimetric measurement of the coating applied to the seed.
The controls for the kf treatments involved two seed samples, 7 and 8, both untreated with kf and one of these was also untreated with VAM spores. The control for the afP treatment was treated with afP but was not treated with VAM. The various treatments, including the addition of VAM spores to the growing medium prior to sowing for VAM development studies are described schematically in Table 6.
The colonization rate of VAM fungi on corn roots was determined using methods commonly used to quantify vesicular arbuscular mycorrhiza (Kormanik PP and AC McGraw (1984) Quantification of vesicular-arbuscular mycorrhizae in plant roots. In N. C. Schenck (ed.) Methods and Principles of Mycorrhizal Research. American Phytopathological Society, St. Paul, Minn.; Phillips J M and D S Hayman (1970) Improved procedures for clearing roots and staining parasitic and vesicular-arbuscular mycorrhizal fungi for rapid assessment of infection. Trans. Br. Mycol. Soc. 55:158-160; Read D J, H K Koncheki and J Hodgson (1976) Vesicular-arbuscular mycorrhiza in natural vegetation systems. New Phytol. 77:641-653). Speedling tray cells (30 ml volume) were partially (⅔) filled with autoclaved Miraco-III potting mix and inoculated with 95 spores of VAM cocktail (Lot No. 12-14-04). The VAM cocktail contained spores of Glomus etunicatum, Glomus clarum, Entrophospora columbiana and Glomus intraradices. The cocktail was prepared by mixing dry-sieved (179 microns) spore preparations of G. entunicatum, G. clarum and E. columbiana with dry root pieces containing the intraradical spores of G. intraradices. Each fungal species was individually produced and processed using a pot culture technique. The cells were then filled with Miraco-III mix. After sowing, (one seed per cell, 9-20 seed per treatment), the trays were incubated under continuous light at room temperature. Ten days after sowing, five seedlings from each experimental treatment and 10 from two untreated controls (Treatments 7 and 8) were randomly selected and transplanted to 1-liter cups containing a sand-based medium. The cups were incubated in a greenhouse and a low phosphorus (P) nutrient solution (1.175 ppm) was applied to all treatments 1-2 times per week as needed to maintain proper soil moisture. […]

[4] = test system: VAM-infected roots of oats; conditions: thereby decreasing phosphorus uptake; cited from earlier work
Glomus mosseae = conditions: cited from earlier work

SMILES: N#Cc1c(Cl)c(Cl)c(Cl)c(C#N)c1Cl [chlorothalonil]
- mycorrhizal colonization, phosphorus concentration, and dry matter yields of Leucaena leucocephala [1]: decrease

SMILES: COc1ccc(-c2coc3cc([O-])ccc3c2=O)cc1.[K+] [Myconate kf, potassium formononetinate]
- % VAM ([2]; 0.5 mg alkali formononetinate/seed over-coated on the named fungicide (or none)): 61%
- % VAM, averaged ([2]; 0.5 mg alkali formononetinate/seed): 67%
- % VAM ([2]; 1.0 mg alkali formononetinate/seed over-coated on the named fungicide (or none)): 66%
- % VAM, averaged ([2]; 1.0 mg alkali formononetinate/seed): 73%
- increase of VAM colonization ([3]; 1.6 mg/seed): approximately 30%
- % Root colonization by VAM: Mean (%) ([3]; Treatment 1: 0.2 mg/seed kf): 41.0%
- % Root colonization by VAM in 5 replicates: A ([3]; Treatment 1: 0.2 mg/seed kf): 40%
- % Root colonization by VAM in 5 replicates: B ([3]; Treatment 1: 0.2 mg/seed kf): 47%
- % Root colonization by VAM in 5 replicates: C ([3]; Treatment 1: 0.2 mg/seed kf): 41%
- % Root colonization by VAM in 5 replicates: D ([3]; Treatment 1: 0.2 mg/seed kf): 39%
- % Root colonization by VAM in 5 replicates: E ([3]; Treatment 1: 0.2 mg/seed kf): 38%
- % Root colonization by VAM: Mean (%) ([3]; Treatment 2: 0.4 mg/seed kf): 43.6%
- % Root colonization by VAM in 5 replicates: A ([3]; Treatment 2: 0.4 mg/seed kf): 44%
- % Root colonization by VAM in 5 replicates: B ([3]; Treatment 2: 0.4 mg/seed kf): 48%
- % Root colonization by VAM in 5 replicates: C ([3]; Treatment 2: 0.4 mg/seed kf): 45%
- % Root colonization by VAM in 5 replicates: D ([3]; Treatment 2: 0.4 mg/seed kf): 40%
- % Root colonization by VAM in 5 replicates: E ([3]; Treatment 2: 0.4 mg/seed kf): 41%
- % Root colonization by VAM: Mean (%) ([3]; Treatment 3: 0.8 mg/seed kf): 43.8%
- % Root colonization by VAM in 5 replicates: A ([3]; Treatment 3: 0.8 mg/seed kf): 45%
- % Root colonization by VAM in 5 replicates: B ([3]; Treatment 3: 0.8 mg/seed kf): 42%
- % Root colonization by VAM in 5 replicates: C ([3]; Treatment 3: 0.8 mg/seed kf): 47%
- % Root colonization by VAM in 5 replicates: D ([3]; Treatment 3: 0.8 mg/seed kf): 45%
- % Root colonization by VAM in 5 replicates: E ([3]; Treatment 3: 0.8 mg/seed kf): 40%
- % Root colonization by VAM: Mean (%) ([3]; Treatment 4: 1.6 mg/seed kf): 32.0%
- % Root colonization by VAM in 5 replicates: A ([3]; Treatment 4: 1.6 mg/seed kf): 30%
- % Root colonization by VAM in 5 replicates: B ([3]; Treatment 4: 1.6 mg/seed kf): 39%
- % Root colonization by VAM in 5 replicates: C ([3]; Treatment 4: 1.6 mg/seed kf): 28%
- % Root colonization by VAM in 5 replicates: D ([3]; Treatment 4: 1.6 mg/seed kf): 35%
- % Root colonization by VAM in 5 replicates: E ([3]; Treatment 4: 1.6 mg/seed kf): 28%
- % Root colonization by VAM: Mean (%) ([3]; Treatment 5: 4.0 mg/seed kf): 25.0%
- % Root colonization by VAM in 5 replicates: A ([3]; Treatment 5: 4.0 mg/seed kf): 27%
- % Root colonization by VAM in 5 replicates: B ([3]; Treatment 5: 4.0 mg/seed kf): 21%
- % Root colonization by VAM in 5 replicates: C ([3]; Treatment 5: 4.0 mg/seed kf): 31%
- % Root colonization by VAM in 5 replicates: D ([3]; Treatment 5: 4.0 mg/seed kf): 24%
- % Root colonization by VAM in 5 replicates: E ([3]; Treatment 5: 4.0 mg/seed kf): 22%
- % Root colonization by VAM: Mean (%) ([3]; Treatment 6: 5.6 mg/seed kf): 18.2%
- % Root colonization by VAM in 5 replicates: A ([3]; Treatment 6: 5.6 mg/seed kf): 19%
- % Root colonization by VAM in 5 replicates: B ([3]; Treatment 6: 5.6 mg/seed kf): 12%
- % Root colonization by VAM in 5 replicates: C ([3]; Treatment 6: 5.6 mg/seed kf): 25%
- % Root colonization by VAM in 5 replicates: D ([3]; Treatment 6: 5.6 mg/seed kf): 18%
- % Root colonization by VAM in 5 replicates: E ([3]; Treatment 6: 5.6 mg/seed kf): 17%
- effect on VAM colonization ([3]; at or above 4.0 mg/seed): decreased VAM colonization
- increase of VAM colonization ([3]; commercial use rate (0.8 mg/seed), over the untreated control (24.2% VAM colonization)): 81%

SMILES: O=[N+]([O-])c1c(Cl)c(Cl)c(Cl)c(Cl)c1Cl [PCNB, pentachloronitrobenzene]
- VAM-infected root length of oats [4]: decreased

SMILES: CCCCNC(=O)n1c(NC(=O)OC)nc2ccccc21 [benomyl]
- Growth of the vesicular arbuscular mycorrhizal fungus Glomus mosseae (Glomus mosseae): affected

Source: US9049814B2, “Coated seeds and methods of making coated seeds” (VamTech, LLC, priority 2007, dated 2015)
